In patent publication US20260257987A1, “COMPOUNDS AND METHOD FOR UPREGULATION OF P53 THROUGH INDUCTION OF MDM2 DEGRADATION” (Georgia State University Research Foundation, Inc., priority 2022, published 2026):

Columns and labels:
[1] = system: RS4;11 cells (wild-type p53); assay: Cytotoxicity test of BW-AQ-365 (CCK-8) in RS4;11 cells; format: cell-based; details: for IC50: Homo sapiens, RS4
Method: Cell viability was assessed by using Cell Counting Kit-8 (CCK-8, Dojindo, Japan). RS4;11 cells (wild-type p53) were cultured in RPMI-1640 medium (Corning, USA). The culture mediums were supplemented with 10% fetal bovine serum (Corning, USA) and 100 unit/ml penicillin, and […] streptomycin. […] Compounds were dissolved in DMSO (molecular biology grade, Sigma-Aldrich, USA) to make 10 mM stock solutions, which were serially diluted with the culture medium to various concentrations (final DMSO concentration=0.5%). A culture medium (50 μL) containing BW-AQ-365 was added directly to the cell suspension in each well immediately after seeding. After incubation for 24-72 h at 37° C. in a humidified atmosphere with 5% CO2, 10 μL of CCK-8 solution was added to each well, and the plate was incubated for an additional 2-4 h at 37° C. before measuring the optical density at 450 nm with a microplate reader (PerkinElmer Victor 2, USA). The cell viability of each well was calculated as the percentage of the untreated control according to the manufacturer's manual. All tests were performed in triplicates, and IC50 values were determined by non-linear regression using GraphPad Prism 9.0.

[2] = Thiol (NAC) reactivity study by HPLC; format: physicochemical
Method: HPLC was performed on Shimadzu LC-20AT HPLC system. Condition: mobile phase A: water with 0.05% TFA; B: acetonitrile with 0.05% TFA; gradient: 5-95% B, 0-10 min; […]; 5% B 12.1-15 min. Column: C18, 3.5 μm, 4.6×150 mm; UV detector monitored at 254 nm. For the thiol reactivity assay, a 0.3 mM solution of AQ-analogs was prepared in 0.5 mL PBS: MeOH (80:20) and warmed at 37° C. Next, 25 μL of NAC (from 30 mM stock solution in PBS) was added to the above solution. The resultant solution had final concentrations of 0.3 mM AQ-analogs and 1.5 mM NAC. 20 μL of the reaction mixture was injected into the HPLC at the designated time intervals. The area percentage values were determined via the integration of the area under the curve (AUC) of the chromatogram.

[3] = system: EU-1 (in-house cell line); assay: Cytotoxicity test of BW-AQ-365 (CCK-8) in EU-1 cells; format: cell-based; details: EU-1, 25000 cells/well, 24 h
[4] = system: MDM2 level in RS4;11 cells; assay: Preliminary study of MDM2 level in RS4;11 cells; format: cell-based

## CC(=O)CCCOc1cccc2c1C(=O)c1c(OCCCC(C)=O)cc(NC(=O)CN=[N+]=[N-])cc1C2=O [BW-AQ-365, 2-azido-N-(9,10-dioxo-4,5-bis ((4-oxopentyl)oxy)-9,10-dihydroanthracen-2-yl)acetamide]
[1]; RS4-11, 48 h, 11, 10000 cells/well, 48 h
  IC50: 190 ± 10 nM
[1]; RS4-11, 48 h, 11, 25000 cells/well, 48 h
  IC50: 610 ± 30 nM
[1]; RS4-11, 72 h, 11, 25000 cells/well, 72 h
  IC50: 5500 ± 320 nM
[1]; RS4;11 cells
  anticancer activity in RS4;11 cells compared with BW-AQ-295: more potent than BW-AQ-295
[2]
  reactivity towards thiol, in words: less reactivity towards thiol
[3]
  IC50: 1550 ± 440 nM
[4]
  MDM2 level in RS4;11 cells: dose-dependently decrease MDM2 level
